# Data as given in ChEMBL document CHEMBL3885881, “DrugMatrix”.
# Organism: Rattus norvegicus
# Assay: DrugMatrix - Regimen: Daily Repeat
# Assay type: toxicity, organism-based, Sprague-Dawley
# Set-up: regimen Daily Repeat, gender Male, age 6-8 weeks
# Settings: in vivo, sc, route subcutaneous, […]; for ABSOLUTE BASOPHIL / ABSOLUTE EOSINOPHIL / ABSOLUTE LYMPHOCYTE / ABSOLUTE MONOCYTE / ABSOLUTE SEGMENTED NEUTROPHIL / BASOPHIL / EOSINOPHIL / ERYTHROCYTE COUNT / HEMATOCRIT / HEMOGLOBIN / LEUKOCYTE COUNT / LYMPHOCYTE / MEAN CORPUSCULAR HEMOGLOBIN / MEAN CORPUSCULAR HEMOGLOBIN CONCENTRATION / MEAN CORPUSCULAR VOLUME / MONOCYTE / NEUTROPHIL / NUCLEATED RED BLOOD CELLS / PLATELET COUNT: tissue Blood; for ALANINE AMINOTRANSFERASE / ALBUMIN / ALKALINE PHOSPHATASE / ASPARTATE AMINOTRANSFERASE / BLOOD UREA NITROGEN / CARBON DIOXIDE / CHLORIDE / CHOLESTEROL / CREATINE PHOSPHOKINASE / CREATININE / GLUCOSE / LACTATE DEHYDROGENASE / LIPASE / PHOSPHORUS / POTASSIUM / SODIUM / TOTAL BILIRUBIN / TOTAL PROTEIN / URIC ACID: tissue Plasma
# [1] = 47.4 mg/kg, 72 h, dose level Low, time 3 day
# [2] = 47.4 mg/kg, 120 h, dose level Low, time 5 day
# [3] = 474 mg/kg, 72 h, dose level High, time 3 day
# [4] = 474 mg/kg, 120 h, dose level High, time 5 day
smiles,measurement,setting,value
O=C(O)C(Cl)(Cl)Cl [TRICHLOROACETIC ACID],ABSOLUTE BASOPHIL,[1],0 CELLS/uL
same,ABSOLUTE EOSINOPHIL,[1],262.67 CELLS/uL
same,ABSOLUTE LYMPHOCYTE,[1],11309 CELLS/uL
same,ABSOLUTE MONOCYTE,[1],301 CELLS/uL
same,ABSOLUTE SEGMENTED NEUTROPHIL,[1],1027.33 CELLS/uL
same,BASOPHIL,[1],0%
same,EOSINOPHIL,[1],2%
same,ERYTHROCYTE COUNT,[1],5.38 x10E6/uL
same,HEMATOCRIT,[1],34.53%
same,HEMOGLOBIN,[1],12.9 G/DL
same,LEUKOCYTE COUNT,[1],12.9 x10E3/uL
same,LYMPHOCYTE,[1],87.67%
same,MEAN CORPUSCULAR HEMOGLOBIN,[1],24.07 pg
same,MEAN CORPUSCULAR HEMOGLOBIN CONCENTRATION,[1],37.33 G/DL
same,MEAN CORPUSCULAR VOLUME,[1],64.37 fL
same,MONOCYTE,[1],2.33%
same,NEUTROPHIL,[1],8%
same,NUCLEATED RED BLOOD CELLS,[1],0 /100WBC
same,PLATELET COUNT,[1],1349.67 x10E3/uL
same,ALANINE AMINOTRANSFERASE,[1],42.67 u/L
same,ALBUMIN,[1],4.2 G/DL
same,ALKALINE PHOSPHATASE,[1],412.67 u/L
same,ASPARTATE AMINOTRANSFERASE,[1],83.33 u/L
same,BLOOD UREA NITROGEN,[1],15.33 mg/dL
same,CARBON DIOXIDE,[1],25.67 mmol/L
same,CHLORIDE,[1],105.67 MEQ/L
same,CHOLESTEROL,[1],63 mg/dL
same,CREATINE PHOSPHOKINASE,[1],270.33 u/L
same,CREATININE,[1],0.23 mg/dL
same,GLUCOSE,[1],155.33 mg/dL
same,LACTATE DEHYDROGENASE,[1],325.67 u/L
same,LIPASE,[1],8.67 u/L
same,PHOSPHORUS,[1],12.73 mg/dL
same,POTASSIUM,[1],6.4 MEQ/L
same,SODIUM,[1],146.37 MEQ/L
same,TOTAL BILIRUBIN,[1],0.17 mg/dL
same,TOTAL PROTEIN,[1],5.3 G/DL
same,URIC ACID,[1],1.27 mg/dL
same,ABSOLUTE BASOPHIL,[2],0 CELLS/uL
same,ABSOLUTE EOSINOPHIL,[2],0 CELLS/uL
same,ABSOLUTE LYMPHOCYTE,[2],12836 CELLS/uL
same,ABSOLUTE MONOCYTE,[2],332 CELLS/uL
same,ABSOLUTE SEGMENTED NEUTROPHIL,[2],898.67 CELLS/uL
same,BASOPHIL,[2],0%
same,EOSINOPHIL,[2],0%
same,ERYTHROCYTE COUNT,[2],5.4 x10E6/uL
same,HEMATOCRIT,[2],33.93%
same,HEMOGLOBIN,[2],12.87 G/DL
same,LEUKOCYTE COUNT,[2],14.07 x10E3/uL
same,LYMPHOCYTE,[2],91.33%
same,MEAN CORPUSCULAR HEMOGLOBIN,[2],23.87 pg
same,MEAN CORPUSCULAR HEMOGLOBIN CONCENTRATION,[2],37.93 G/DL
same,MEAN CORPUSCULAR VOLUME,[2],62.87 fL
same,MONOCYTE,[2],2.33%
same,NEUTROPHIL,[2],6.33%
same,NUCLEATED RED BLOOD CELLS,[2],0 /100WBC
same,PLATELET COUNT,[2],1378 x10E3/uL
same,ALANINE AMINOTRANSFERASE,[2],40 u/L
same,ALBUMIN,[2],4.2 G/DL
same,ALKALINE PHOSPHATASE,[2],302.67 u/L
same,ASPARTATE AMINOTRANSFERASE,[2],75.33 u/L
same,BLOOD UREA NITROGEN,[2],20 mg/dL
same,CARBON DIOXIDE,[2],28.33 mmol/L
same,CHLORIDE,[2],105.67 MEQ/L
same,CHOLESTEROL,[2],66.33 mg/dL
same,CREATINE PHOSPHOKINASE,[2],164.33 u/L
same,CREATININE,[2],0.19 mg/dL
same,GLUCOSE,[2],166.33 mg/dL
same,LACTATE DEHYDROGENASE,[2],114 u/L
same,LIPASE,[2],8 u/L
same,PHOSPHORUS,[2],13.1 mg/dL
same,POTASSIUM,[2],6.29 MEQ/L
same,SODIUM,[2],148.4 MEQ/L
same,TOTAL BILIRUBIN,[2],0.17 mg/dL
same,TOTAL PROTEIN,[2],5.63 G/DL
same,URIC ACID,[2],1.6 mg/dL
same,ABSOLUTE BASOPHIL,[3],0 CELLS/uL
same,ABSOLUTE EOSINOPHIL,[3],47.33 CELLS/uL
same,ABSOLUTE LYMPHOCYTE,[3],16441.33 CELLS/uL
same,ABSOLUTE MONOCYTE,[3],452 CELLS/uL
same,ABSOLUTE SEGMENTED NEUTROPHIL,[3],2492.67 CELLS/uL
same,BASOPHIL,[3],0%
same,EOSINOPHIL,[3],0.33%
same,ERYTHROCYTE COUNT,[3],4.84 x10E6/uL
same,HEMATOCRIT,[3],30.03%
same,HEMOGLOBIN,[3],11.4 G/DL
same,LEUKOCYTE COUNT,[3],19.43 x10E3/uL
same,LYMPHOCYTE,[3],85%
same,MEAN CORPUSCULAR HEMOGLOBIN,[3],23.57 pg
same,MEAN CORPUSCULAR HEMOGLOBIN CONCENTRATION,[3],38.03 G/DL
same,MEAN CORPUSCULAR VOLUME,[3],62.03 fL
same,MONOCYTE,[3],2.33%
same,NEUTROPHIL,[3],12.33%
same,NUCLEATED RED BLOOD CELLS,[3],0.33 /100WBC
same,PLATELET COUNT,[3],1335.33 x10E3/uL
same,ALANINE AMINOTRANSFERASE,[3],56.33 u/L
same,ALBUMIN,[3],3.77 G/DL
same,ALKALINE PHOSPHATASE,[3],300.33 u/L
same,ASPARTATE AMINOTRANSFERASE,[3],95 u/L
same,BLOOD UREA NITROGEN,[3],18.33 mg/dL
same,CARBON DIOXIDE,[3],24.33 mmol/L
same,CHLORIDE,[3],105 MEQ/L
same,CHOLESTEROL,[3],68.67 mg/dL
same,CREATINE PHOSPHOKINASE,[3],418.33 u/L
same,CREATININE,[3],0.19 mg/dL
same,GLUCOSE,[3],142.67 mg/dL
same,LACTATE DEHYDROGENASE,[3],520.33 u/L
same,LIPASE,[3],7.67 u/L
same,PHOSPHORUS,[3],12.23 mg/dL
same,POTASSIUM,[3],6.31 MEQ/L
same,SODIUM,[3],146.47 MEQ/L
same,TOTAL BILIRUBIN,[3],0.2 mg/dL
same,TOTAL PROTEIN,[3],5.27 G/DL
same,URIC ACID,[3],1.37 mg/dL
same,ABSOLUTE BASOPHIL,[4],0 CELLS/uL
same,ABSOLUTE EOSINOPHIL,[4],102 CELLS/uL
same,ABSOLUTE LYMPHOCYTE,[4],13327 CELLS/uL
same,ABSOLUTE MONOCYTE,[4],456.67 CELLS/uL
same,ABSOLUTE SEGMENTED NEUTROPHIL,[4],2747.67 CELLS/uL
same,BASOPHIL,[4],0%
same,EOSINOPHIL,[4],0.67%
same,ERYTHROCYTE COUNT,[4],5.19 x10E6/uL
same,HEMATOCRIT,[4],33.1%
same,HEMOGLOBIN,[4],12.5 G/DL
same,LEUKOCYTE COUNT,[4],16.63 x10E3/uL
same,LYMPHOCYTE,[4],80%
same,MEAN CORPUSCULAR HEMOGLOBIN,[4],24.07 pg
same,MEAN CORPUSCULAR HEMOGLOBIN CONCENTRATION,[4],37.77 G/DL
same,MEAN CORPUSCULAR VOLUME,[4],63.73 fL
same,MONOCYTE,[4],2.67%
same,NEUTROPHIL,[4],16.67%
same,NUCLEATED RED BLOOD CELLS,[4],0 /100WBC
same,PLATELET COUNT,[4],1546 x10E3/uL
same,ALANINE AMINOTRANSFERASE,[4],55 u/L
same,ALBUMIN,[4],3.33 G/DL
same,ALKALINE PHOSPHATASE,[4],217 u/L
same,ASPARTATE AMINOTRANSFERASE,[4],111.33 u/L
same,BLOOD UREA NITROGEN,[4],13.67 mg/dL
same,CARBON DIOXIDE,[4],23 mmol/L
same,CHLORIDE,[4],109.33 MEQ/L
same,CHOLESTEROL,[4],66 mg/dL
same,CREATINE PHOSPHOKINASE,[4],1000 u/L
same,CREATININE,[4],0.19 mg/dL
same,GLUCOSE,[4],170 mg/dL
same,LACTATE DEHYDROGENASE,[4],160 u/L
same,LIPASE,[4],8 u/L
same,PHOSPHORUS,[4],12.67 mg/dL
same,POTASSIUM,[4],6.26 MEQ/L
same,SODIUM,[4],147.7 MEQ/L
same,TOTAL BILIRUBIN,[4],0.17 mg/dL
same,TOTAL PROTEIN,[4],5.03 G/DL
same,URIC ACID,[4],2.6 mg/dL
